The results in this text go back to article PMC11414412, “Design and synthesis new indole-based aromatase/iNOS inhibitors with apoptotic antiproliferative activity” (Frontiers in Chemistry, 2024).

One series relates to MCF-10A cells. Put plainly: Cell viability assay (MTT) on normal mammary epithelial cells. In kind it is cell-based, human. As to conditions: MCF-10A normal cells, 50 µM, 4 days incubation. On the procedure: This test investigates the effects of the new compounds 3–16 on normal cell lines to determine their safety. The normal human mammary gland epithelial (MCF-10 A) cell line was used to test the viability of the tested compounds. After 4 days of incubation on MCF-10 A cells within 50 µM of each investigated compound, cell viability was determined using the MTT assay ([Gomaa et al., 2020]; [Marzouk et al., 2020]).
The normal human mammary gland epithelial (MCF-10A) cell line was used to test the viability of the tested compounds. After 4 days of incubation on MCF-10A cells within 50 µM of each investigated compound, cell viability was determined using the MTT assay ([Gomaa et al., 2020]; [Marzouk et al., 2020]). Refer to Supplementary Appendix SA1 (supp. File) for more details.
4.2. Biological evaluation
4.2.1 Cell Viability assay (MTT assay)
MTT assay was performed to investigate the effect of the synthesized compounds on mammary epithelial cells (MCF-10A). The cells were propagated in medium consisting of Ham's F-12 medium/ Dulbecco's modified Eagle's medium (DMEM) (1:1) supplemented with 10% foetal calf serum, 2 mM glutamine, insulin (10 μg/mL), hydrocortisone (500 ng/mL) and epidermal growth factor (20 ng/mL). Trypsin ethylenediamine tetra acetic acid (EDTA) was used to passage the cells after every 2-3 days. 96-well flat-bottomed cell culture plates were used to seed the cells at a density of 10^4 cells mL-1. The medium was aspirated from all the wells of culture plates after 24 h followed by the addition of synthesized compounds (in 200 μL medium to yield a final concentration of 0.1% (v/v) dimethyl sulfoxide) into individual wells of the plates. Four wells were designated to a single compound. The plates were allowed to incubate at 37°C for 96 h. Afterwards, the medium was aspirated and 3-[4,5-dimethylthiazol-2-yl]-2,5-diphenyltetrazolium bromide (MTT) (0.4 mg/mL) in medium was added to each well and subsequently incubated for 3 h. The medium was aspirated and 150 μL dimethyl sulfoxide (DMSO) was added to each well. The plates were vortexed followed by the measurement of absorbance at 540 nm on a microplate reader. The results were presented as inhibition (%) of proliferation in contrast to controls comprising 0.1%

In another series the test system is Caspase-3. As to the kind of experiment: Caspase-3 activation assay. In kind it is cell-based, human. As to conditions: A-594 cells; for Caspase-3 Fold change: at IC50 concentration, vs untreated control; for Caspase-3 Conc: compound at its IC50 concentration.

Regarding `CCc1c2cc(Cl)ccc2n2c(C)c(C(=O)OCc3ccccc3)[nH]c(=O)c12` [Compound 5, benzyl 8-chloro-10-ethyl-4-methyl-1-oxo-1,2-dihydropyrazino [1,2-a]indole-3-carboxylate], the melting point lay within 180 to 182 °C.
As to `CCc1c2cc(Cl)ccc2n2cc(Cc3ccccc3)n(C)c(=O)c12` [Compound 12, 3-Benzyl-8-chloro-10-ethyl-2-methylpyrazino[1,2-a]indol-1(2H)-one], in the series with MCF-10A cells, the Cell viability % entry is recorded as “no effect”. Further, in the series on Caspase-3, the “Caspase-3 Fold change” value amounted to 9 and the “Caspase-3 Conc” value stood at 580 ± 5 pg/mL.
The matching figures for `CCc1c2cc(Cl)ccc2n2cc(-c3ccccc3)[nH]c(=O)c12` [Compound 16, 8-Chloro-10-ethyl-3-phenylpyrazino [1,2-a]indol-1(2H)-one]: “no effect”, 8 and 530 ± 5 pg/mL.

The term melting point denotes the temperature, or range, at which the solid turns liquid.
